Data published in patent US8791249B2, “Nucleic acid encoding humanized c-kit antibody” (Amgen Inc., priority 2006, dated 2014).
“Also recorded” adds a separate entry of the source.

Tests used:
[1] = tested on: U-937 cells expressing Fcγ receptor I=CD64, Fcγ receptor II=CD32 and Fcγ receptor III=CD16; assay: Non-specific FcR binding to U-937 cells; assay type: cell-based
Text: (§1) In contrast, binding of SR-1 IgG1 and IgG4β isotypes was detected presumably to the high affinity FcγRI. […] Aglycosylated chimeric mouse/human IgG1 antibodies have been reported to […] (Hybridoma. 1991 April; 10(2):211-7) and so these desired activities of hSR-1 aIgG1 are not expected.

[2] = tested on: human CD34+, CD 117+ (c-Kit) bone marrow cells; assay: CD34+ bone marrow cell CFU assay (SCF/GM-CSF colony formation), human; assay type: cell-based
Method: (§2) The SR-1 monoclonal antibody was selected based on its equivalent functional potency at human and monkey c-Kit in the CD34+ bone marrow cell CFU assay (inhibition at 1.0 ug/mL), and its monkey PK.

c-Kit dimer = assay: Biacore binding to c-Kit dimer versus soluble monomer; design: species or system human
c-Kit dimer, sequence (P10721 26-509 limits assumed): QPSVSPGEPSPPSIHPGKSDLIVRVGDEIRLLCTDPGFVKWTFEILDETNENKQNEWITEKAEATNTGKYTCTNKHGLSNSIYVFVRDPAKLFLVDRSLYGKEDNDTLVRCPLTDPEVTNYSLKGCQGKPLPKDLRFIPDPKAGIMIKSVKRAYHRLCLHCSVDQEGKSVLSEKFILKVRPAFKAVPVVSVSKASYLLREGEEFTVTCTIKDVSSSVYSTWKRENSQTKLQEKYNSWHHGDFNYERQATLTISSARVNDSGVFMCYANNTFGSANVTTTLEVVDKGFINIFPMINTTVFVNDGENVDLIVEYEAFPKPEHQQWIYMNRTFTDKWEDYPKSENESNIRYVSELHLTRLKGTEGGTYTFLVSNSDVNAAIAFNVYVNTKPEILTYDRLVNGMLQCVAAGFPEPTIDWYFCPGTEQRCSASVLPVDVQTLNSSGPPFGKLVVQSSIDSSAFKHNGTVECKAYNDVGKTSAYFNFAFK
Text: Activation of c-Kit upon binding by stem cell factor (SCF) leads to dimerization/oligomerization, autophosphorylation and receptor internalization, most likely through a clathrin-dependent pathway. The SR-1 monoclonal antibody binds the c-Kit dimer with 1000-fold higher affinity compared to the soluble c-Kit extra-cellular domain monomer as determined by Biacore.
Carbohydrates present on a glycoprotein can influence biological and functional properties. […] This is an important characteristic not predicted to be translated with certainty with the humanization and as the soluble c-Kit monomer is less likely to act as a sink for the antibody in vivo.

c-Kit in MO7e cells = assay: SCF-mediated c-Kit phosphorylation and internalization in MO7e cells; assay type: cell-based
[3] = Exposure after repeated once-weekly dosing; assay type: in vivo, African green monkeys; settings: preliminary exposure data
Text: Based on preliminary exposure data of SR-1 and humanized antibodies in African green monkeys after repeated once-weekly dosing, humanized antibodies achieved higher exposures compared to SR-1. […] 1992; 35(3): 165-74.

[4] = tested on: wound activated skin mast cells; assay: Wound pharmacodynamic model of mast cell expansion in monkey; settings: for Fold UT-7 IC50 (Ctrough) / Inhibition of activated skin mast cells: day 14
[5] = Preliminary PK study after single IV or SC administration
Method: A preliminary PK study was conducted to compare hSR-1 IgG2 and hSR-1 aIgG1 PK in male cynomolgus monkeys after a single IV or SC administration at 3 mg/kg.

[6] = Human dose projection (body surface area-based dose conversion); settings: equivalent dosing regimen, preliminary estimation
Method: The minimal effective dose in the wound PD model of mast cell expansion is <0.3 mg/Kg administered once weekly for 2 weeks in monkeys. Based on a body surface area-based dose conversion, the minimal effective dose in human is projected to be <0.1 mg/Kg with an equivalent dosing regiment. However, this is a preliminary estimation as the PK and the pharmacodynamic relationship between the degree and duration of c-kit inhibition in human by hSR-1 aIgG1 and clinical endpoints are unknown at this time. A more accurate projection will be made when more pharmacokinetic and pharmacodynamic data are available.

[7] = tested on: basal lung and colon mast cells; assay: Depletion of basal lung and colon mast cells in monkey; assay type: in vivo; settings: day 14
Method: as §2
[…] […] For practical reasons, basal pulmonary mast cells were evaluated on day 28 at the time of necropsy and the termination of the study.

[8] = In vivo tolerability in non-human primates; settings: up to 30 mg/kg once weekly for 4 weeks or up to 150 mg/kg subcutaneously once weekly for 2 weeks
[9] = tested on: Cultured human mast cells derived from bone marrow CD34+ cells; assay: Cultured human mast cell assays (survival, c-Kit phosphorylation, aggregation); assay type: cell-based
[10] = Effector function (CDC, ADCC); assay type: cell-based
Text: as §1

c-Kit = c-Kit (Homo sapiens, UniProt P10721); assay: Cell based assays of c-Kit signaling (functional potency, agonism, internalization); design: endogenous in cells; host or cells: MO7e cells; cultured human mast cells derived from bone marrow CD34+ cells; primary human CD34+ CD117+ bone marrow cells; UT-7 cells; settings: all cell based assays tested
c-Kit, sequence (P10721 26-976): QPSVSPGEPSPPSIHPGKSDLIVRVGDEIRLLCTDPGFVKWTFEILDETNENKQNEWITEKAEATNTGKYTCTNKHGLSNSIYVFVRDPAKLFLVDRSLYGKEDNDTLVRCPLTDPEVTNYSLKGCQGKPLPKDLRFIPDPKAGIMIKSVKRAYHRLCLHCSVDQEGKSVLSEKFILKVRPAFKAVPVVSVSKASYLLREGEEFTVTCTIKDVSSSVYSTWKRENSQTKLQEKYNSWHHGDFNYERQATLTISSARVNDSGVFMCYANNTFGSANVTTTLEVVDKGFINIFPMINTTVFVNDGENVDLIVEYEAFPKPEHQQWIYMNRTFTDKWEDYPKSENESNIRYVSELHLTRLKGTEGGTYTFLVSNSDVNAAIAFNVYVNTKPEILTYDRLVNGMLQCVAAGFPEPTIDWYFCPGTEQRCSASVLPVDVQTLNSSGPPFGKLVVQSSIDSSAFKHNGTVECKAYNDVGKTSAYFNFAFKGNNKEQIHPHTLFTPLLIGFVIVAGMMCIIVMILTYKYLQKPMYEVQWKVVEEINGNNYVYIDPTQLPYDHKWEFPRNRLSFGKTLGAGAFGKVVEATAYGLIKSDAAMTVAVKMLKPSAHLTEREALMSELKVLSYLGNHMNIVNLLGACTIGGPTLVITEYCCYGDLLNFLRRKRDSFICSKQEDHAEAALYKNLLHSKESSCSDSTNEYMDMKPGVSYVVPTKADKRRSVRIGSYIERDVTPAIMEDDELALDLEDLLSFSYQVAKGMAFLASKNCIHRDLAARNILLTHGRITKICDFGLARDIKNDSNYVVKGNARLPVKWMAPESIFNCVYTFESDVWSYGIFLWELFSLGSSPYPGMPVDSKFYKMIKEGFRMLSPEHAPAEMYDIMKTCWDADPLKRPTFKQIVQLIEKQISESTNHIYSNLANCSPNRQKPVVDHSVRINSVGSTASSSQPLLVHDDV
Text: These properties are potentially undesirable since the aim of a therapeutic strategy is to apoptotically deplete mast cells and precurors by blocking the survival SCF signal and to avoid mast cell activation that could lead to anaphylactoid reactions in vivo. When the mouse SR-1 CDR regions were inserted in the human IgG1 framework, affinity and functional potency were also maintained, but this background is less desirable due to the complement activation and cell mediated cytotoxicity often found with this isotype of antibody.
The aglycosylated IgG1 isotype was chosen to avoid effector function and cell killing through bystander effects. […] It also depletes mast cells in vivo as expected.

[11] = IV, 3 mg/kg, male cynomolgus monkeys
[12] = SC, 3 mg/kg, male cynomolgus monkeys

hSR-1 aIgG1: Humanized anti-c-Kit aglycosylated IgG1 antibody; kappa light chain SEQ ID NO: 2, heavy chain SEQ ID NO: 4
non-specific FcR binding [1]: no detectable | survival relative to baseline [2]: inhibit survival below baseline | neutralization of the synergistic effect of SCF on GM-CSF derived colony formation ([2]; 1.0 ug/mL): neutralization | intrinsic agonistic survival activity ([2]; up to 10 ug/mL): no intrinsic agonistic survival activity | binding to receptor dimer / membrane c-Kit versus monomer / soluble c-Kit (c-Kit dimer): higher affinity to the membrane c-Kit compared to soluble c-kit; also recorded: high affinity to the receptor dimer versus monomer | inhibition of SCF-mediated c-Kit phosphorylation and internalization (c-Kit in MO7e cells): potently inhibited | agonism in c-Kit receptor proximal phosphorylation read-out (c-Kit in MO7e cells; antibody alone): no evidence of agonism | exposure compared within group [3]: equal best in group PK | Fold UT-7 IC50 (Ctrough) ([4]; 0.3 mg/kg once weekly): >200 fold | Fold UT-7 IC50 (Ctrough) ([4]; 1.0 mg/kg once weekly): >2000 fold | Inhibition of activated skin mast cells ([4]; 1.0 mg/kg once weekly): >95% | Fold UT-7 IC50 (Ctrough) ([4]; 3.0 mg/kg once weekly): >7000 fold | Inhibition of activated skin mast cells ([4]; 3.0 mg/kg once weekly): >95% | minimal effective dose in the wound PD model ([4]; once weekly for 2 weeks in monkeys): < 0.3 mg/kg | AUC0-tlast [5, 11]: 9710 µg·h/mL | C0 [5, 11]: 103 µg/mL | CL ([5]; IV, 3 mg/kg, calculated based on AUC0-tlast): ≦0.309 mL/hr/kg | AUC0-tlast [5, 12]: 7970 µg·h/mL | Cmax [5, 12]: 36.4 µg/mL | Tmax [5, 12]: 72 h | PK time profile ([5]; single IV or SC 3 mg/kg): non-linear PK | projected minimal effective dose in human [6]: < 0.1 mg/kg | Depletion of basal colon mast cells ([7]; 0.3 mg/kg once weekly): no efficacy; also recorded: No effect | Depletion of basal colon mast cells ([7]; 1.0 mg/kg once weekly): >65% | Depletion of basal colon mast cells ([7]; 3.0 mg/kg once weekly): >95% | abnormalities on in vivo dosing [8]: No unexpected abnormalities | homotypic mast cell aggregation / clustering [9]: no ability to mediate homotypic mast cell aggregation | inhibition of SCF-dependent mast cell survival [9]: inhibited | c-Kit receptor phosphorylation mediated by the antibody ([9]; FIG. 3): did not mediate | survival signal conferred to mast cells (agonist activity) ([9]; antibody alone): conferred no survival signal | complement dependent cytotoxic cell death [10]: no complement dependent cytotoxic cell death | ADCC activity ([10]; predicted from lack of FcR binding): no ADCC activity | antagonism of SCF (c-Kit): highly potent neutral antagonist | agonism of c-Kit (c-Kit; proximal and distal read-outs): no agonism
